According to paper PMC8951016, “Computational Design and Biological Evaluation of Analogs of Lupin Peptide P5 Endowed with Dual PCSK9/HMG-CoAR Inhibiting Activity” (Pharmaceutics, 2022):

How the values were obtained:
[1] = test system: LDL uptake, HepG2 cells; test: Fluorescent LDL uptake in HepG2 cells in the presence of PCSK9; format: cell-based, human; settings: PCSK9 4 μg/mL, 2 h; vs untreated control cells; p < 0.05
Protocol: HepG2 cells (3 × 10^4/well) were seeded in 96-well plates and kept in complete growth medium for 2 days before treatment. The third day, cells were washed with PBS and then starved overnight (O/N) in DMEM without FBS and antibiotics. After starvation, they were treated with 4.0 μg/mL PCSK9 and 4.0 μg/mL PCSK9 + P5 and P5 analogs peptides (50 µM), and vehicle (H2O) for 2 h with at 37 °C under 5% CO2 atmosphere. Fluorescent LDL-uptake was finally assessed following optimized protocol. See Supplementary Materials for further details.
PBS for 1.5 h at RT. LDLR primary antibody solution (1:3000 in 5% BSA in PBS, 25 µL/well) was incubated O/N at +4 °C. […] The reaction was stopped with 2 M H2SO4 and then the absorbance at 450 nm was measured using the microplate reader Synergy H1 (Winoo-ski, VT, USA). After the read, cells were stained by adding 1 X Janus Green stain, incubat-ing for 5 min at RT. […]
Afterward 100 µL 0.5 M HCl for well were added and incubated for 10 min. After 10 sec-onds shaking, the OD at 595 nm was measured using the microplate reader Synergy H1 […]
Fluorescent LDL Uptake. […] The degree of LDL uptake was measured using the Synergy H1 fluo-rescent plate reader (Winooski, VT, USA) (excitation and emission wavelengths 540 and 570 nm, respectively). Fluorescent LDL-uptake was finally assessed following optimized […]

[2] = test system: LDLR on HepG2 cell surface; test: In-cell western (ICW), LDLR on HepG2 surface in the presence of PCSK9; format: cell-based, human; settings: PCSK9 4 μg/mL, 2 h; vs untreated control cells; p < 0.001
Protocol: For the experiments, a total of 3 × 10^4 HepG2 cells/well were seeded in 96-well plates and treated with 4.0 μg/mL PCSK9-WT and 4.0 μg/mL PCSK9 + peptides P5 and/or P5 analogs (50 µM) and vehicle (H2O) for 2 h at 37 °C under 5% CO2 atmosphere. Thus, cells underwent to ICW assay following conditions already optimized. See Supplementary Materials for detailed information. […]
cLex Co., Nagano, Japan). The peptides (P5, P5-Best, P-H6A, and P5-S7A) were synthe-sized by the company GeneScript (Piscataway, NJ, USA) at >95% purity. The antibody against HMG-CoAR was bought from Abcam (Cambridge, UK). […]
HMG-CoAR Aactivity Assay. […] Subsequently, the samples were mixed and the absorbance at 340 nm read by the microplate reader Synergy H1 (Winooski, VT, USA) at time 0 and 10 min. The HMG-CoAR-dependent oxidation of NADPH and the inhibition properties of peptides were measured by absorbance reduction, which is directly proportional to enzyme activ- […]
In Vitro PCSK9-LDLR Binding Assay. […] The reaction was stopped with 2.0 M sulfuric acid and the absorbance at 450nm was measured using the Synergy H1 fluorescent plate reader […]

[3] = test system: LDL uptake, HepG2 cells; settings: cited from earlier work
[4] = test system: LDLR on HepG2 cell surface; settings: cellular level; cited from earlier work
[5] = target: T1, HMG-CoAR (catalytic domain) (Homo sapiens, UniProt P04035); settings: cited from earlier work
T1 construct: finally the HMG-CoAR (cata- lytic domain) (2 µL); purchased Sigma-Aldrich
T1 sequence (P04035 426-888 limits assumed): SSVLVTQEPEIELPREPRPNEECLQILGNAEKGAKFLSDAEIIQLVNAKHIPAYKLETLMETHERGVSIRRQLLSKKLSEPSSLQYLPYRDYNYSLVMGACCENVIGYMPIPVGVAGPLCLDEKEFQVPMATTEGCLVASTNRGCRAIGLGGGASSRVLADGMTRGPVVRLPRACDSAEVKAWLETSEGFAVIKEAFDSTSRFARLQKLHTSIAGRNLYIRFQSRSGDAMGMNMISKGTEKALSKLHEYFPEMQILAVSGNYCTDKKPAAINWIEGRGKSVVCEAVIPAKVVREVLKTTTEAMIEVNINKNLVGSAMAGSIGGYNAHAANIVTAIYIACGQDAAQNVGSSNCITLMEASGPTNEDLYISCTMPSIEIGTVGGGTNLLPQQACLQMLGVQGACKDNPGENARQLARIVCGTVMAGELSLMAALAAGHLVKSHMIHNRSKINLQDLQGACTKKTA

[6] = test system: LDLR; design: method as in 3 sources, ref 48 = [48]; doi:10.1111/jfbc.12757; 48. Lammi C. Zanoni C. Arnoldi A. Aiello G. […] (P3), a peptide from lupin protein, absorbed by Caco-2 cells, modulates cholesterol metabolism in HepG2 cells via SREBP-1 activation J. Food B ||| ref 22 = [22]; doi:10.1016/j.jff.2017.02.009; 22. Zanoni C. Aiello G. Arnoldi A. Lammi C. Investigations on the hypocholesterolaemic activity of […] and LTFPGSAED, two peptides from lupin β-conglutin: Focus on LDLR and PCSK9 pathways J. Fu ||| ref 24 = [24]; PMID 33808034; doi:10.3390/nu13030863; 24. Lammi C. Aiello G. Bollati C. Li J. Bartolomei M. Ranaldi G. Ferruzza S. Fassi E.M.A. Grazioso G. Sambuy Y. Trans-Epithelial Transport, Metabolism, and Biological Activity Assessment of the Multi-; settings: via compensatory upregulation of SREBP-1; cited from earlier work
[7] = test system: SREBP-2; settings: cited from earlier work
Protocol: Further experiments were performed to verify the ability of these P5 analogs to modulate the LDLR pathway in HepG2 cells.

[8] = test system: PCSK9; design: method as in 3 sources, ref 49 = [49]; PMID 35011066; doi:10.3390/nu14010193; 49. Macchi C. Greco M.F. Ferri N. Magni P. Arnoldi A. Corsini A. Sirtori C.R. Ruscica M. Lammi C. Impact of Soy β-Conglycinin Peptides on PCSK9 Protein Expression in HepG2 Cells Nutrients 2021 14 193 ||| ref 22 = [22]; doi:10.1016/j.jff.2017.02.009; 22. Zanoni C. Aiello G. Arnoldi A. Lammi C. Investigations on the hypocholesterolaemic activity of […] and LTFPGSAED, two peptides from lupin β-conglutin: Focus on LDLR and PCSK9 pathways J. Fu ||| ref 24 = [24]; PMID 33808034; doi:10.3390/nu13030863; 24. Lammi C. Aiello G. Bollati C. Li J. Bartolomei M. Ranaldi G. Ferruzza S. Fassi E.M.A. Grazioso G. Sambuy Y. Trans-Epithelial Transport, Metabolism, and Biological Activity Assessment of the Multi-; settings: 250 µM, via modulation of HNF1-α; cited from earlier work
[9] = test system: mature PCSK9 (secreted); design: method as in PMID 35011066; settings: 250 µM, via modulation of HNF1-α; cited from earlier work

PCSK9: PCSK9 added at 4 µg/mL to HepG2 cells
reduction in uptake of fluorescent LDL by PCSK9 alone [1]: 43.6 ± 9.6% | decrease of LDLR level by PCSK9 alone [2]: 25.4 ± 1.6%

TVFTSWEEYLDWV [Pep2-8]
restoration of hepatocyte LDL absorption vs P5 analogs [3]: less efficient than P5 analogs | restoration of LDLR protein levels vs P5 analogs [4]: less efficient than P5 analogs

YDFYPSSTKDQQS [Peptide P3, a peptide from lupin protein]
HMG-CoAR activity (P3, words) [5]: inhibits HMG-CoAR activity | LDLR protein levels (P3, words) [6]: increase in the LDLR protein levels | SREBP-2 activation (P3, words) [7]: without SREBP-2 activation

YVVNPDNNEN [peptide from soybean β-Conglycinin]
PCSK9 protein level (YVVNPDNNEN, words) [8]: reduces the PCSK9 protein level | HMG-CoAR inhibition (YVVNPDNNEN, words) [5]: able to inhibit the HMG-CoAR activity | PCSK9 secretion (YVVNPDNNEN, words) [9]: reduces the PCSK9 protein level and its secretion
